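These data come from cells grown in 96-well plates and exposed to compound for 48 hours at five concentrations. GI50 is the concentration that inhibits growth by half. TGI: total growth inhibition.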

Holding throughout (test): NCI-60 cell line screen, 48 h
The test system of assay [1] is HCT-116 colon.
Assay [2] relates to M14 melanoma.
Assay [3] concerns KM12 colon.
The subject of assay [4] is U251 CNS.
For assay [5], the system named is OVCAR-3 ovarian.
The subject of assay [6] is MDA-MB-231 breast.
For assay [7], the system named is HT29 colon.
Assay [8] relates to OVCAR-4 ovarian.
The test system of assay [9] is MOLT-4 leukemia.
Assay [10] deals with HOP-62 NSCLC.

As for `COc1ccc2c(c1)C(C)Cc1c(ncnc1-n1cnc3ccccc31)N2C` (stereo unspecified), the GI50 in assay [1] is 494 nM; in [2], 313 nM; in [3], 444 nM; in assay [4], 0.59 µM; in [5], 357 nM; in assay [6] it was 1.04 µM. Besides, the GI50 is 336 nM in assay [7], 1.25 µM in [8], 0.479 µM in [9] and 638 nM in assay [10]. The TGI in assay [1] worked out at 12.7 µM; in assay [2], 12.7 µM; in assay [3], 12.1 µM; in [4], 16.2 µM; in [5], 3.41 µM; in assay [6] it was 4.35 µM. Also, the TGI in assay [7] was found to be 1.43 µM; in assay [8], 30.6 µM; in [9], 21.2 µM; in assay [10], 25 µM.
On to `NCCCn1c2c(c3ccccc3c1=O)C(=O)c1ccccc1-2`, for which the GI50 is 259 nM in assay [1]; 628 nM in assay [2]; 124 nM in assay [3]; 0.0888 µM in assay [4]; 721 nM in [5]; 0.177 µM in [6]. In addition, the GI50 in [7] is 128 nM; in assay [8] it was 0.785 µM; in assay [9], 0.0363 µM; in assay [10], 87.5 nM. Moreover, the TGI was 3.47 µM in [2]; 2.65 µM in assay [3]; 1.42 µM in [4]; 5.25 µM in assay [5]; 0.736 µM in [6]; 15.4 µM in assay [7]. The TGI in assay [8] turned out to be 9.82 µM; in assay [9], 0.7 µM; in assay [10], 0.64 µM.
As for `CNC(C)[C@H]1CCC2C3CC=C4C(=O)[C@@H](NC(=O)C=C(C)C)CC[C@]4(C)C3CC[C@@]21C` (stereo partly specified), the GI50 is 1090 nM in [1]; 1720 nM in assay [2]; 2460 nM in [3]; 2.19 µM in assay [4]; 1820 nM in assay [5]; 1.89 µM in assay [6]. In addition, the GI50 was 358 nM in assay [7], 2.22 µM in assay [8], 1.27 µM in assay [9] and 1700 nM in [10]. For the same compound, the TGI in assay [1] came out at 2.53 µM; in assay [2], 3.45 µM; in assay [3], 10.3 µM; in assay [4], 11.8 µM; in [5], 6.04 µM; in assay [6], 4.74 µM. The TGI turned out to be 1.59 µM in assay [7], 17.9 µM in assay [8], 3.89 µM in assay [9] and 3.63 µM in [10].
With `COC(=O)[C@]12CC[C@@H](C)[C@H](C)[C@@H]1C1=CC[C@@H]3[C@@]4(C)C(C=O)=C[C@@](C)(COC(=O)c5ccco5)[C@@H]4[C@H](O)C[C@@]3(C)[C@]1(C)CC2`, the GI50 in assay [1] is 1190 nM; in [2] it was 305 nM; in assay [3] it was 1830 nM; in assay [4] it was 1.41 µM; in [5], 1870 nM; in assay [6], 2.49 µM. In addition, the GI50 was 1810 nM in assay [7], 2.38 µM in assay [8], 2.29 µM in assay [9] and 2160 nM in [10]. In addition, the TGI turned out to be 2.59 µM in [1]; 2.6 µM in assay [2]; 4.5 µM in assay [3]; 2.91 µM in assay [4]; 3.73 µM in [5]; 5.83 µM in assay [6]. Further, the TGI is 4.14 µM in assay [7], 28.2 µM in assay [8], 7.5 µM in assay [9] and 6.07 µM in [10].
For `COc1cc(/C=C/C(=O)Oc2ccccc2)ccc1C(=O)O/C=C/c1ccccc1`, the TGI in assay [1] was above 100 µM; in assay [2], above 100 µM; in assay [3], above 100 µM; in assay [4], above 100 µM; in assay [5], above 31.6 µM; in [6], above 100 µM. The TGI in assay [7], in assay [8], in [9] and in [10] was above 100 µM throughout.
For `C=C(C)[C@@H]1CC[C@]2(C)[C@H](CC[C@@H]3[C@@H]([C@@](C)(O)CCC=C(C)C)CC[C@]32C)[C@@]1(C)CCC(=O)O`, the GI50 was 15400 nM in assay [1]; 16400 nM in [2]; 16300 nM in assay [3]; 16.6 µM in assay [4]; 15900 nM in assay [5]; 16.6 µM in [6]. The GI50 in assay [7] is 24100 nM; in assay [8] it was 16.3 µM; in assay [9] it was 15.4 µM; in assay [10] it was 18600 nM. Also, the TGI in [1] turned out to be 29.8 µM; in [2] it was 36.1 µM; in assay [3] it was 32.4 µM; in assay [4] it was 31.8 µM; in [5], 29.8 µM; in assay [6] it was 33.1 µM. The TGI in [7] was above 100 µM; in assay [8] it was 39 µM; in [9], 52.7 µM; in [10], 45.3 µM.
For the compound `COC(=O)C(=O)CC(=O)c1cccc(OC)c1`, the TGI in assay [1], in assay [2], in [3], in [4], in assay [5] and in assay [6] was above 100 µM each time. Also, the TGI in [7], in [8], in assay [9] and in [10] was above 100 µM throughout.
For the compound `COc1cc2c3c(n(CCCN(C)CCO)c(=O)c2cc1OC)-c1cc2c(cc1C3=O)OCO2`, the GI50 in [1] is 1900 nM; in assay [2] it was 1480 nM; in assay [3], 11400 nM; in assay [4], 0.814 µM; in assay [5], 35900 nM; in [6], 14 µM. In addition, the GI50 in [7] was 9060 nM; in [8], 30.9 µM; in assay [9], below 0.013 µM; in [10], 1170 nM. The TGI is 30.7 µM in [1]; above 68.9 µM in [2]; 45.7 µM in assay [3]; above 100 µM in assay [4]; above 100 µM in assay [5]; 49.9 µM in [6]. In addition, the TGI in assay [7] is above 75.2 µM; in assay [8] it was above 72.4 µM; in [10], above 100 µM.
Consider `Oc1ccc(N=Nc2nccs2)c(O)c1`, for which the GI50 in assay [1] was 2920 nM; in assay [2], 11000 nM; in assay [3] it was 4570 nM; in assay [4] it was 4.5 µM; in assay [5], 2400 nM; in [6], 8.77 µM. The GI50 was 3610 nM in assay [7], 3.46 µM in assay [8], 3.1 µM in assay [9] and 19900 nM in assay [10]. For the same compound, the TGI was 8.95 µM in assay [1]; 48.4 µM in [2]; 22.7 µM in assay [3]; 35.2 µM in assay [4]; 7.37 µM in assay [5]; above 100 µM in assay [6]. In addition, the TGI in assay [7] is 23.1 µM; in [8], above 100 µM; in assay [9] it was 20.3 µM; in assay [10] it was 49.8 µM.
For the compound `CN1C(NNC(=O)c2cccnc2)=NS(=O)(=O)c2cc(Cl)ccc21`, the GI50 is above 100000 nM in assay [1]; above 100000 nM in [2]; above 100000 nM in [3]; above 100 µM in assay [4]; above 100000 nM in [5]; above 100 µM in assay [6]. Also, the GI50 in assay [7] was above 100000 nM; in assay [8], above 100 µM; in assay [9], above 100 µM; in assay [10] it was above 100000 nM. Moreover, the TGI in assay [1], in assay [2], in assay [3], in assay [4], in [5] and in [6] was above 100 µM throughout. Also, the TGI in [7], in assay [8], in assay [9] and in assay [10] was above 100 µM throughout.
For the compound `Oc1ccc(Oc2cnc3ccccc3n2)cc1`, the GI50 in [1] is above 100000 nM; in assay [2], above 100000 nM; in assay [3], 45000 nM; in assay [4], above 100 µM; in [5] it was above 100000 nM; in assay [6] it was above 100 µM. Further, the GI50 in [7] was above 100000 nM; in assay [8] it was 60.3 µM; in [9] it was 41.4 µM; in [10], above 100000 nM. Further, the TGI in assay [1], in assay [2], in assay [3], in assay [4], in assay [5] and in assay [6] was above 100 µM throughout. The TGI in assay [7], in [8], in assay [9] and in assay [10] was above 100 µM throughout.
Take `O=C1c2ccccc2C(=O)c2c(NCCN=Cc3ccccc3O)cccc21`: the GI50 in [1] is 3640 nM; in [2], 7440 nM; in assay [3] it was 2930 nM; in assay [4] it was 5.06 µM; in [5] it was 2380 nM; in assay [6], 7.91 µM. Also, the GI50 in assay [7] was 2260 nM; in assay [8], 2.79 µM; in assay [9], 3.33 µM; in assay [10] it was 6610 nM. In addition, the TGI in [1] was 15.3 µM; in [2], 32.7 µM; in assay [3], 8.37 µM; in assay [4] it was 19.5 µM; in [5], 7.92 µM; in assay [6], above 80.6 µM. The TGI was above 22.9 µM in [8], above 30.5 µM in assay [9] and 52.3 µM in assay [10].
`Nc1c(C(=O)Nc2ccccc2Cl)sc2nc3c(cc12)C(=O)CCC3`: the GI50 was 54900 nM in assay [1]; 1060 nM in assay [2]; 592 nM in [3]; 4.18 µM in assay [4]; 1220 nM in assay [5]; 6.97 µM in [6]. In addition, the GI50 in assay [7] is 610 nM; in assay [8], above 27.5 µM; in assay [9], above 100 µM; in assay [10] it was 4330 nM. The TGI in assay [1], in assay [2], in [3], in assay [4], in assay [5] and in assay [6] was above 100 µM in each case. Further, the TGI in assay [7] was above 100 µM; in [8], above 100 µM; in [9], above 100 µM; in assay [10], above 67.3 µM.
As to `Cc1noc2c1-c1ccccc1C(c1ccc(Cl)cc1)=N[C@H]2CC(N)=O`, the GI50 in assay [1] is 5340 nM; in [2], 2370 nM; in [3], 12100 nM; in assay [4], 20 µM; in assay [5], 3750 nM; in assay [6], 7.56 µM. Further, the GI50 in assay [7] is 1350 nM; in assay [8], 4.35 µM; in assay [9], 7.71 µM; in [10], 2600 nM. Besides, the TGI in assay [1], in assay [2], in assay [3], in assay [4], in assay [5] and in assay [6] was above 100 µM throughout. The TGI in assay [7], in assay [8], in [9] and in assay [10] was above 100 µM throughout.
Turning to `COc1cc2c3c(n(CCCN(CCO)CCO)c(=O)c2cc1OC)-c1cc2c(cc1C3=O)OCO2`, the GI50 in assay [1] is below 10 nM; in [2] it was below 10 nM; in [3] it was 365 nM; in [4] it was below 0.01 µM; in [5], 62 nM; in [6], 0.583 µM. Also, the GI50 in assay [7] is below 10 nM; in assay [8] it was 0.842 µM; in [9], below 0.01 µM; in [10], below 10 nM. In addition, the TGI in assay [1] worked out at 0.0679 µM; in assay [2] it was 0.17 µM; in assay [3] it was 1.84 µM; in [4] it was 0.628 µM; in assay [5], 0.295 µM; in assay [6] it was 2.42 µM. Further, the TGI in assay [7] was 1.03 µM; in [8], 3.61 µM; in [9] it was below 0.01 µM.

The record behind these values is PubChem BioAssay (NCI).
